From publication PMC5963010, “Characterization of a novel thermostable and xylose-tolerant GH 39 β-xylosidase from Dictyoglomus thermophilum” (BMC Biotechnology, 2018) come the findings set out here.

The target in the test is T1, Xln-DT (Dictyoglomus thermophilum, UniProt B5YB78).
T1 construct: gene DICTH_1792; full-length ORF, 502 aa (1509 bp), in pET-20b (BamHI/XhoI), E. coli BL21(DE3); tag not described
T1 sequence (B5YB78 1-502): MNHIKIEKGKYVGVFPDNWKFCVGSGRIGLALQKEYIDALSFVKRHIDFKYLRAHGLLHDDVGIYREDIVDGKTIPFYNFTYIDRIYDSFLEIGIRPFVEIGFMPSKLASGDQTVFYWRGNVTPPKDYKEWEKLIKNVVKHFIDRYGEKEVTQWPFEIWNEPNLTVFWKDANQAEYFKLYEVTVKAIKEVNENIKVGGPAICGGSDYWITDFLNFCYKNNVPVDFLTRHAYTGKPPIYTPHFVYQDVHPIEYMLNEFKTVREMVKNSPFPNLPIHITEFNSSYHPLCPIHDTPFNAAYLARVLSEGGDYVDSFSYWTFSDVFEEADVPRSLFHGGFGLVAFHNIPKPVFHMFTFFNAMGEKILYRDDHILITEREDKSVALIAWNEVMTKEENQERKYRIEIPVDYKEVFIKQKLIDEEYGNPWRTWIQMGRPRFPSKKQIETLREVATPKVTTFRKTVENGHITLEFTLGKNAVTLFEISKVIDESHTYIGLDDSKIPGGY
Briefly: pNPX hydrolysis assay with added xylose. It is filed as biochemical.

One may read the inhibition as the drop in the measured response relative to a control, in per cent.

Structures are written as SMILES.

`OC1OC[C@@H](O)[C@H](O)[C@H]1O` (stereo partly shown) [xylose] gave an inhibition at 3 M of 40%.
